The text below walks through data of paper PMC3227451, “Structure-based development of novel sirtuin inhibitors” (Aging (Albany NY), 2011).

Where two headings read alike, the source gives them in different places.

Type in all cases: biochemical
The target of one assay is T1, Sirt2 (Homo sapiens, UniProt Q8IXJ6).
T1 sequence (Q8IXJ6 34-356): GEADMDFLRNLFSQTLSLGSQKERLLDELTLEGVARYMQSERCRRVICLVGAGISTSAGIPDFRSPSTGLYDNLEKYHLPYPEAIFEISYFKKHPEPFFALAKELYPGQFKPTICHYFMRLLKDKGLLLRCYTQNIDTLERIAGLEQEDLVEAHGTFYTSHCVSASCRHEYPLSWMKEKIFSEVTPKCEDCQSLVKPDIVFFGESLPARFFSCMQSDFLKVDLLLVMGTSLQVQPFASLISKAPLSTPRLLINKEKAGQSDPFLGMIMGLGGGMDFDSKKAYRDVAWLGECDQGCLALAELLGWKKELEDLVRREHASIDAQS
In words: Fluor-de-Lys peptide deacetylation assay, Sirt2. The procedure:
The Sirt2 construct was expressed in E. coli Rosetta2 cells (Merck) in LB/Ampicillin/Chloramphenicol medium. Cells were grown at 37 °C, and expression induced at an OD600 of 0.6-0.8 for 4 h with 0.5 mM IPTG. Harvested cells were resuspended in buffer A (50 mM Tris/HCl pH 7.8, 200 mM NaCl, 2 mM DTT), disrupted with a Sonifier, and cell debris removed by 40 min centrifugation at 4 °C, 18000 rpm in a HFA22.50 rotor. The supernatant was supplemented with 10 mM imidazole and incubated with Ni-NTA resin for 1 h at 4 °C. […] The protein was concentrated in an amicon unit (Millipore, Billerica, USA) and digested over night at 4 °C with TEV-protease. The protease was removed from cleaved Sirt2 by incubation with Ni-NTA resin for 1 h at 4 °C. The protein was concentrated, 1:5 diluted with 50 mM Tris/HCl, pH 7.8, and applied to a HiTrap Q anion exchange column (GE Healthcare) equilibrated with 50 mM Tris/HCl, pH 7.8, 50 mM NaCl, 2 mM DTT and eluted with a gradient (20 column volumes) to 50 mM Tris/HCl, pH 7.8, 1 M NaCl, 2 mM DTT. Sirt2 was then applied to a Superdex200 gel filtration column (GE Healthcare) equilibrated in 20 mM Tris/HCl, pH 7.8, 150 mM NaCl, 2 mM DTT. The eluted protein was analyzed by SDS-PAGE, re-concentrated, and shock-frozen in liquid nitrogen for storage at -80 °C.
(§1) The commercial Fluor-de-Lys (FdL) assay kits 1 and 2 (Biomol, Plymouth Meeting, USA) were used to test the deacetylase activity of the four Sirtuins. In both kits the substrate derived from p53 is composed of three amino acids, the acetyl lysine and a C-terminally attached fluorophor. For Sirt2 and 3, FdL-2 peptide (QPK(acetyl-K)) was used, and FdL-1 peptide (RHK(acetyl-K)) for Sirt5 and Sirt6. All tests were done with 0.1 mM of the respective FdL peptide and 0.5 mM NAD^+ as substrates.
(§2) NCI compound stocks were prepared by dissolving them in DMSO at a concentration of 5 mM. The initial screens with all 40 compounds contained 5 μl Sirtuin solution (Sirt2/3 0.1 mg/ml stock concentration; Sirt5/6 1 mg/ml), 1 μl of compound stock (resulting in a 100 μM end concentration), 15 μl FdL substrate, and assay buffer (supplied in the assay kit) to a total volume of 50 μl. As control reactions, peptide with either the compound (without Sirtuin) or with Sirtuin and DMSO instead of compound were measured. After starting the reactions by adding the FdL substrate, assays were incubated for 30 min at 37 °C. Subsequently, 50 μl of a 10 mg/ml trypsin stock (“Developer solution”) were added and the reactions were incubated for 45 min at room temperature. Fluorescence values were measured in a fluorometric plate reader with excitation at 360 nm and read out at 485 nm. Values were then corrected with the control reaction (same compound, but without Sirtuin).
(§3) All measurements shown are averages of duplicates (screen) or triplicates (dose-response curves), and representatives of at least two independent replications. Error bars indicate standard deviations.

In another assay the target is T2, Sirt5 (Homo sapiens, UniProt Q9NXA8).
T2 construct: Sirt5 residues 34-302; His-tag with linker comprising a TEV protease cleavage site (N); made in house
T2 sequence (Q9NXA8 34-302): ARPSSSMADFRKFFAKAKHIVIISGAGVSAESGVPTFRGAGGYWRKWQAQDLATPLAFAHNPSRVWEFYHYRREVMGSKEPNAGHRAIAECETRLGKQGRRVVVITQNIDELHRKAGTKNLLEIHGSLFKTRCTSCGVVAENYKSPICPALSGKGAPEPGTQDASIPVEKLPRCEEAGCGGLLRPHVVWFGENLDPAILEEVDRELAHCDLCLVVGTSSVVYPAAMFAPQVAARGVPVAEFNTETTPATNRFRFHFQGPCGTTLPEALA
In words: Fluor-de-Lys peptide deacetylation assay, Sirt5. The procedure:
(§4) Sirt3 was expressed in E. coli and purified via Ni-NTA and size exclusion chromatography as described elsewhere, and Sirt5 according to the protocol of Schuetz et al.. […] The protein was bound to the HiTrapQ column in buffer A and eluted in a gradient to buffer A supplemented with 400 mM KCl. Fractions were analyzed by SDS-PAGE, and the Sirt1 fractions were pooled and transferred into buffer A using a NAP column (GE Healthcare).
as §1, §2, §3

In the next assay the target is T3, Sirt3 (Homo sapiens, UniProt Q9NTG7).
T3 construct: Sirt3 residues 114-399; His-tag with linker comprising a TEV protease cleavage site (N); made in house; host or cells: E. coli
T3 sequence (Q9NTG7 114-399): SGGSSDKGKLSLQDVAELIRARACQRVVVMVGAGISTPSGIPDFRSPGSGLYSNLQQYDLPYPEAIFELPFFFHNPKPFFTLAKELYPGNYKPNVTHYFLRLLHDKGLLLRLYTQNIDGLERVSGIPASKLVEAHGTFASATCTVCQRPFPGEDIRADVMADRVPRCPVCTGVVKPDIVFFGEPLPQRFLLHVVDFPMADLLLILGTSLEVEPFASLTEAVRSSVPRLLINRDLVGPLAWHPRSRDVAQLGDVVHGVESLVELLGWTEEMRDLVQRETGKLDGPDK
In words: Fluor-de-Lys peptide deacetylation assay, Sirt3. Here is the method:
as §4, §1, §2, §3

In a further assay the target is T4, Sirt6 (Homo sapiens, UniProt Q8N6T7).
T4 construct: Sirt6 residues 13-308; His-tag with linker comprising a TEV protease cleavage site (N, cleaved yes); made in house; host or cells: E. coli Rosetta2
T4 sequence (Q8N6T7 13-308): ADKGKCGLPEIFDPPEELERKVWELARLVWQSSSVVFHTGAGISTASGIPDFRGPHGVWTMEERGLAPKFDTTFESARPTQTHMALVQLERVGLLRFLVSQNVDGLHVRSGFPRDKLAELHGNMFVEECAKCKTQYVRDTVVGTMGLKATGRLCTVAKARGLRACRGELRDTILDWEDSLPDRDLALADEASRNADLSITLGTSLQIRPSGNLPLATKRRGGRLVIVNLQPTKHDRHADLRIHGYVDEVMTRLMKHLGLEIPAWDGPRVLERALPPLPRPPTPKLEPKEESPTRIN
In words: Fluor-de-Lys peptide deacetylation assay, Sirt6. The procedure:
as §1, §2, §3

[1] abbreviates: 100 μM compound, 0.1 mM FdL-2 peptide, 0.5 mM NAD+.
Setting [2] is: 100 μM compound, 0.1 mM FdL-1 peptide, 0.5 mM NAD+.

On to `Cc1ccc(C(=N)c2ccccc2Cc2cccc3ccccc23)c2ccccc12` [CSC24, (4-methyl-1-naphthyl)(2-(1-naphthylmethyl)phenyl)methanimine], for which, at Sirt2 (setting [1]), the “Effect on the activity of Sirt2” value is reported as “inhibition (significant inhibitory effects (>25% loss of activity))”. Further, on Sirt5 (setting [2]), the “Effect on the activity of Sirt5” value is listed as “--- (no such effect)”. Moreover, the “Effect on the activity of Sirt3” value on Sirt3 (setting [1]) was “--- (no such effect)”. Besides, the “Effect on the activity of Sirt6” value on Sirt6 (setting [2]) is on record as “--- (no such effect)”.
Take `O=C1c2cccc([N+](=O)[O-])c2C(=O)N1c1ncn[nH]1` [CSC25, 4-(hydroxy(oxido)amino)-2-(1H-1,2,4-triazol-5-yl)-1H-isoindole-1,3(2H)-dione]: the “Effect on the activity of Sirt2” value at Sirt2 (setting [1]) is recorded as “--- (no such effect)”. Besides, at Sirt5 (setting [2]), the “Effect on the activity of Sirt5” value was “--- (no such effect)”. The “Effect on the activity of Sirt3” value at Sirt3 (setting [1]) is reported as “--- (no such effect)”. The “Effect on the activity of Sirt6” value at Sirt6 (setting [2]) is recorded as “--- (no such effect)”.
As to `Cc1ccc(C2(C)CCC(=NN=C3CCC(C)(c4ccc(C)c(C)c4)c4cc(C)c(C)cc43)c3cc(C)c(C)cc32)cc1C` (stereo not drawn) [CSC26, 4-(3,4-dimethylphenyl)-4,6,7-trimethyl-3,4-dihydro-1(2H)-naphthalenone (4-(3,4-dimethylphenyl)-4,6,7-trimethyl-3,4-dihydro-1(2H)-naphthalenylidene)hydrazone], the “Effect on the activity of Sirt2” value on Sirt2 (setting [1]) was “--- (no such effect)”. Further, the “Effect on the activity of Sirt5” value on Sirt5 (setting [2]) is on record as “--- (no such effect)”. Moreover, the “Effect on the activity of Sirt3” value at Sirt3 (setting [1]) is recorded as “--- (no such effect)”. In addition, the “Effect on the activity of Sirt6” value at Sirt6 (setting [2]) is listed as “--- (no such effect)”.
As for `O=C1c2ccccc2C(=O)c2c1ccc(N1C(=O)c3ccccc3C1=O)c2-c1c(N2C(=O)c3ccccc3C2=O)ccc2c1C(=O)c1ccccc1C2=O` [CSC27], the “Effect on the activity of Sirt2” value at Sirt2 (setting [1]) is listed as “inhibition (significant inhibitory effects (>25% loss of activity))”. The “Effect on the activity of Sirt5” value on Sirt5 (setting [2]) is “--- (no such effect)”. Moreover, the “Effect on the activity of Sirt3” value on Sirt3 (setting [1]) was “--- (no such effect)”. The “Effect on the activity of Sirt6” value at Sirt6 (setting [2]) is given as “inhibition (significant inhibitory effects (>25% loss of activity))”.
With `O=C1OC2(c3ccc(O)cc3Oc3cc(O)ccc32)c2c1c(-c1ccccc1)c(-c1ccccc1)c(-c1ccccc1)c2-c1ccccc1` [CSC28], the “Effect on the activity of Sirt2” value at Sirt2 (setting [1]) is on record as “inhibition (significant inhibitory effects (>25% loss of activity))”. Further, the “Effect on the activity of Sirt5” value on Sirt5 (setting [2]) is on record as “--- (no such effect)”. Further, at Sirt3 (setting [1]), the “Effect on the activity of Sirt3” value is on record as “--- (no such effect)”. The “Effect on the activity of Sirt6” value on Sirt6 (setting [2]) is listed as “activation”.
For `O=C1C2C(c3ccccc3)NC(c3ccccc3)C1C(c1ccccc1)NC2c1ccccc1` (stereo not drawn) [CSC29, 2,4,6,8-tetraphenyl-3,7-diazabicyclo[3.3.1]nonan-9-one], the “Effect on the activity of Sirt2” value on Sirt2 (setting [1]) is “--- (no such effect)”. Besides, the “Effect on the activity of Sirt5” value at Sirt5 (setting [2]) is “--- (no such effect)”. Further, the “Effect on the activity of Sirt3” value on Sirt3 (setting [1]) is on record as “--- (no such effect)”. The “Effect on the activity of Sirt6” value on Sirt6 (setting [2]) was “--- (no such effect)”.
For the compound `O=C1C=C(Nc2nc(O)cc(C(=O)O)n2)c2ccccc2C1=O` [CSC30, 2-((3,4-dioxo-3,4-dihydro-1-naphthalenyl)amino)-6-hydroxy-4-pyrimidinecarboxylic acid], the “Effect on the activity of Sirt2” value on Sirt2 (setting [1]) is reported as “--- (no such effect)”. Also, the “Effect on the activity of Sirt5” value on Sirt5 (setting [2]) is reported as “--- (no such effect)”. At Sirt3 (setting [1]), the “Effect on the activity of Sirt3” value is recorded as “--- (no such effect)”. The “Effect on the activity of Sirt6” value at Sirt6 (setting [2]) is “--- (no such effect)”.
As to `O=c1c2ccccc2c2ccccc2c(=O)n1-c1cc2c3ccccc3ccc2c2ccccc12` [CSC31, 6-(6-chrysenyl)-5H-dibenzo[c,e]azepine-5,7(6H)-dione], at Sirt2, the “Effect on the activity of Sirt2” value is reported as “--- (key: inhibition: significant inhibitory effects (>25% loss of activity); ---: no such effect)”. Also, the “Effect on the activity of Sirt5” value at Sirt5 was “--- (key: inhibition: significant inhibitory effects (>25% loss of activity); ---: no such effect)”. Further, the “Effect on the activity of Sirt3” value on Sirt3 is “--- (key: inhibition: significant inhibitory effects (>25% loss of activity); ---: no such effect)”. Further, on Sirt6, the “Effect on the activity of Sirt6” value is recorded as “--- (key: inhibition: significant inhibitory effects (>25% loss of activity); ---: no such effect)”.
In the case of `COc1ccc2c(c1)Cc1cc(/N=[N+](\[O-])c3ccc4c(c3)Cc3cc(OC)ccc3-4)ccc1-2` [CSC32, 1-hydroxy-1,2-bis(7-methoxy-9H-fluoren-2-yl)-1^5-diazene], the “Effect on the activity of Sirt2” value on Sirt2 (setting [1]) is on record as “inhibition (significant inhibitory effects (>25% loss of activity))”. Further, on Sirt5 (setting [2]), the “Effect on the activity of Sirt5” value is on record as “--- (no such effect)”. Also, the “Effect on the activity of Sirt3” value on Sirt3 (setting [1]) is reported as “--- (no such effect)”. Also, the “Effect on the activity of Sirt6” value at Sirt6 (setting [2]) is reported as “--- (no such effect)”.
Take `O=S1(=O)C(c2ccccc2)C(N2CCCCC2)C1C1CC2c3ccccc3C1c1ccccc12` (stereo not drawn) [CSC33]: the “Effect on the activity of Sirt2” value on Sirt2 (setting [1]) was “--- (no such effect)”. For the same compound, the “Effect on the activity of Sirt5” value on Sirt5 (setting [2]) is given as “activation”. Further, the “Effect on the activity of Sirt3” value on Sirt3 (setting [1]) is on record as “--- (no such effect)”. Further, the “Effect on the activity of Sirt6” value on Sirt6 (setting [2]) was “activation”.
As to `O=C1C2C3c4ccccc4C(C2C(=O)N1c1ccc(OCc2ccccc2)cc1)[n+]1ccccc13` (stereo not drawn) [CSC34], the “Effect on the activity of Sirt2” value on Sirt2 (setting [1]) was “inhibition (significant inhibitory effects (>25% loss of activity))”. Further, on Sirt5 (setting [2]), the “Effect on the activity of Sirt5” value was “--- (no such effect)”. Moreover, on Sirt3 (setting [1]), the “Effect on the activity of Sirt3” value was “--- (no such effect)”. In addition, on Sirt6 (setting [2]), the “Effect on the activity of Sirt6” value is listed as “activation”.
For the compound `O=C1c2ccccc2C(=O)c2c(NC(=O)c3ccc4c5c(ncnc35)-c3ccccc3C4=O)cccc21` [CSC36, N-(9,10-dioxo-9,10-dihydro-1-anthracenyl)-7-oxo-7H-benzo[e]perimidine-4-carboxamide, (Pigment Yellow 108)], the “Effect on the activity of Sirt2” value on Sirt2 (setting [1]) is “--- (no such effect)”. The “Effect on the activity of Sirt5” value at Sirt5 (setting [2]) is listed as “--- (no such effect)”. Besides, the “Effect on the activity of Sirt3” value on Sirt3 (setting [1]) was “--- (no such effect)”. Further, the “Effect on the activity of Sirt6” value on Sirt6 (setting [2]) is listed as “--- (no such effect)”.
